Broadly, the IC50 is the midpoint of a concentration-inhibition curve. A low value points to higher potency.

The target of the test is T1, Ketohexokinase (Homo sapiens, UniProt P50053).
T1 sequence (P50053 whole entry): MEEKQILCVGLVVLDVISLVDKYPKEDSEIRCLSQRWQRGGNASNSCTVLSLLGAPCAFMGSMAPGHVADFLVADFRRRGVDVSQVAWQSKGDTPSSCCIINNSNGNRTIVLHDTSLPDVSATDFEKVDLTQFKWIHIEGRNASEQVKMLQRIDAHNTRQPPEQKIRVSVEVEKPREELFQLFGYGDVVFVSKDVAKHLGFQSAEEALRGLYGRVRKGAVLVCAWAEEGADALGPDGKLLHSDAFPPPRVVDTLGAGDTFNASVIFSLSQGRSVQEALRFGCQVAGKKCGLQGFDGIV
Description: Enzyme Assay: An enzymatic assay was developed to measure KHK-mediated conversion of D-fructose to Fructose-1-P (F-1-P) using High Throughput Mass Spectroscopy (HTMS) as a means of product detection. […] The assay was carried out in 384-well plate format.

Turning to `CSc1nn(-c2ccc(Br)cc2)c2cc(OC3CCNCC3)ccc12`, the midpoint of inhibition, the IC50, lay at 2.05 µM.

The record behind these values is ChEMBL document CHEMBL3638794, “Indazole compounds useful as ketohexokinase inhibitors” (2014).
